How the values were obtained:
[1] = system: H1299 stably expressing ts p53 mutants; experiment: Apoptosis (PARP cleavage) and MTS cell viability in H1299 stably expressing ts p53 mutants treated with CPT; assay type: cell-based, human
Procedure: FIGS. 3A to 3D show induction of growth arrest and cell death by p53 ts mutants. […] DNA replication rate was measured by scintillation counting and normalized to cell number. […] PARP cleavage was determined by Western blot. FIGS. 3C and 3D show H1299 stably expressing ts p53 mutants treated with CPT at indicated concentrations for 48 hrs at 37° C. or 32° C. Cell viability was determined by MTS assay. The results are average of 3 experiments (mean±SD).
Western blot. Cells were lysed in lysis buffer (50 mM Tris-HCl pH 8.0, 5 mM EDTA, 150 mM NaCl, 0.5% Nonidet P-40, 1×protease inhibitor cocktail) and centrifuged for 10 minutes at 14,000×g, and the insoluble debris was discarded. Cell lysate (10-50 µg of protein) was fractionated by SDS-PAGE and transferred to Immobilion P filters (Millipore). […] MDM2 was detected using monoclonal antibody 3G9 produced in house. Other markers were detected using commercial antibodies: Actin (Sigma A5441), p53-DO1 (BD Pharmingen #554293), p21 (BD Pharmingen #556430), PUMA (CellSignaling #12450), PARP (BD Pharmingen #556362), p53 pSer15 (CellSignaling #9284), p53 acetyl-Lys382 (CellSignaling #2525).
Cell proliferation and viability assays. DNA replication was analyzed using ^3H-thymidine incorporation assay. […] The incorporated ^3H-thymidine was analyzed by liquid scintillation counting. […]

GA10 tumors = experiment: GA10 subcutaneous tumor xenografts in nude mice treated with CPT with or without hypothermia; assay type: in vivo
Procedure: FIGS. 7A to 7E show hypothermia cooperates with chemotherapy to induce regression of tumors expressing ts p53. […] CPT (1.5 mg/kg) was given at the beginning of each hypothermia cycle. Average size of tumors was plotted over time (mean±SD). FIG. 7B contains pictures of a GA10 partial response tumor before and after treatment. FIG. 7C is a waterfall plot showing combined results of 3 experiments. Tumors with durable remission are marked as “cured”. FIG. 7D contains individual growth curves of representative GA10 tumors from FIG. 7A that achieved durable remission after treatment. FIG. 7E contains individual growth curves of GA10 tumors from FIG. 7A that relapsed and received re-treatment.
FIGS. 14A to 14D show effect of low-dose CPT treatment alone on tumor growth. […] Tumor growth at 37° C. (without hypothermia treatment) was determined at indicated time points. […] Tumor growth at 37° C. (without hypothermia treatment) was determined at indicated time points. […] When tumors reached approximately 100 mm^3 the mice were injected i.p. with 1.5 mg/kg CPT every 3 days. Tumor growth was monitored over time (mean±SD). […] Average size of tumors was plotted over time.
Animal experiment. Animal experiments were reviewed and approved by the University of South Florida IACUC. Athymic female nude mice (6-week old, Athymic Nude-Foxn1nu, Envigo) were injected subcutaneously with 0.1 ml 1:1 slurry of Matrigel (VWR 47743-715) and 1×10^7 cells in PBS at each site. The inoculated mice were housed in a cabinet set to 28° C. (ARIA BIO-C36 ventilated cabinet, TECNIPLAST) to ensure that tumors develop at ˜37° C. Each mouse received injections at 2 sites, tumors formed at >80% of sites injected with GA10 cells. N^6-cyclohexyladenosine (CHA, Sigma C9901) was dissolved at 20 mg/ml in 25% (2-Hydroxypropyl)-β-cyclodextrin (w/v, Sigma H107) and heated at 65° C. for 10 min to ensure dissolution. Camptothecin (CPT, Santa Cruz Biotechnology sc-200871B) was freshly dissolved in 1 N NaOH, diluted to ˜0.5 mg/ml with saline, and adjusted to pH10 using HCl. To induce hypothermia, 0.2 ml saline+10% glucose containing CHA and CPT was administered by intra peritoneal injection to provide a CHA dosage of 10 mg/kg body weight and CPT (when indicated) dosage of 1.5 mg/kg body weight. The mice were kept in the 28° C. cabinet and monitored using infrared thermal imaging camera (FLIR ONE Pro, FLIR® Systems, Inc.) to verify that body temperature was maintained at ˜32° C. A second injection of CHA (10 mg/kg) in 0.4 ml saline+10% glucose was given after 10 hours to maintain hypothermia for ˜24 hours. A third injection of CHA (10 mg/kg) in 0.4 ml saline+10% glucose was given after 10 hours to maintain hypothermia for ˜32 hours. […]

UC3 bladder cancer cells = experiment: UC3 colony formation after 2 hrs drug treatment, washout and 32° C. or 37° C. incubation; assay type: cell-based; conditions: 2 hrs drug at 37° C., washout, 32° C. vs 37° C. 24 hrs, then 7 days at 37° C.
Procedure: FIGS. 17A and 17B show hypothermia treatment given after chemotherapy enhances drug response in bladder cancer. […] The washed cells were incubated at 32° C. or 37° C. for 24 hrs, followed by 7 days at 37° C. and crystal violet staining for colony formation.
Standard bladder intravesical chemotherapy involves 1-2 hr irrigation with drugs at 37° C. or 42° C. The effect of treating cells with 32° C. hypothermia after chemotherapy was tested to avoid interference with drug uptake. TS mutant p53 activation peaks 6-8 hrs after shift to 32° C., which should cooperate with chemotherapy-induced DNA damage to induce cell death. […] Saline irrigation of up to 24 hrs is routinely performed after transurethral resection of bladder tumor (TURBT) procedure to prevent clotting. Therefore, irrigation with cooled saline after intravesical chemotherapy is expected to be well-tolerated and safe.

In the case of `CC[C@@]1(O)C(=O)OCc2c1cc1n(c2=O)Cc2cc3ccccc3nc2-1` [CPT, Camptothecin], the “apoptosis indicated by PARP cleavage” value ([1]; 0.5 μM CPT for 48 hrs at 32° C., 1% FBS) is reported as “cooperated with CPT to induce apoptosis”, the “cell viability (MTS assay)” value ([1]; CPT for 48 hrs at 32° C.) is reported as “loss of cell viability” and the “GA10 tumor growth, CPT alone” value (GA10 tumors; 1.5 mg/kg CPT i.p., 37° C., no hypothermia) is reported as “modestly inhibited GA10 tumor growth at 37 °C but did not cause shrinkage”. For the same molecule, the “response to CPT, GA10 versus GA10-p53KO tumors” value (GA10 tumors; 1.5 mg/kg CPT, 37° C. body temperature (p53 inactive)) was “no difference in response to CPT”, the “GA10 tumor response to hypothermia+CPT combination” value (GA10 tumors; CPT 1.5 mg/kg, 32° C. hypothermia, 32 hr×5 format) was “significant regression” and the “GA10 tumors that did not relapse” value (GA10 tumors; hypothermia+CPT, 32 hr×5 format, 50-day observation period after stopping treatment (12/37)) was 32%. For the same molecule, the “effect of 32° C. for 24 hrs after drug on growth inhibition (colony formation)” value (UC3 bladder cancer cells) was “significantly increased the growth inhibition potency”.
